Experimental data reported in the supplement of paper PMC11061612.

Experiments:
Test in all cases: Bliss excess, mean over the matrix (fraction); higher = more synergy
[1] = test system: A101D (Melanoma)
How it was run: (§1)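 Bliss excess equals the observed combination effect minus the expected value EA + EB − EA·EB, where EA and EB are the effects of each agent alone. Combination Emax is the second-highest inhibition within the matrix. Inhibition was scaled from CellTiter-Glo 2.0 luminescence, with 0 set by vehicle wells and 1 by blank wells, after 72 hours of two-drug dosing of cells plated in 1536-well plates.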

[2] = test system: A2780 (Ovarian Carcinoma)
How it was run: as §1

[3] = test system: AU565 (Breast Carcinoma)
How it was run: as §1

[4] = test system: CA46 (Burkitt's Lymphoma)
How it was run: as §1

[5] = test system: CAL-27 (Oral Cavity Carcinoma)
How it was run: as §1

[6] = test system: CESS (Acute Myeloid Leukemia)
How it was run: as §1

[7] = test system: CGTH-W-1 (Thyroid Gland Carcinoma)
How it was run: as §1

[8] = test system: DMS-53 (Small Cell Lung Carcinoma)
How it was run: as §1

[9] = test system: DU-4475 (Breast Carcinoma)
How it was run: as §1

[10] = test system: EB2 (Burkitt's Lymphoma)
How it was run: as §1

[11] = test system: ESO26 (Esophageal Adenocarcinoma)
How it was run: as §1

[12] = test system: EW-7 (Ewing's Sarcoma)
How it was run: as §1

[13] = test system: G-402 (Other Solid Carcinomas)
How it was run: as §1

[14] = test system: HCC1428 (Breast Carcinoma)
How it was run: as §1

[15] = test system: MDA-MB-436 (Breast Carcinoma)
How it was run: as §1

[16] = test system: MHH-ES-1 (Ewing's Sarcoma)
How it was run: as §1

[17] = test system: NCI-H1651 (Lung Adenocarcinoma)
How it was run: as §1

[18] = test system: OACp4C (Esophageal Adenocarcinoma)
How it was run: as §1

[19] = test system: PEO1 (Ovarian Carcinoma)
How it was run: as §1

[20] = test system: WM1552C (Melanoma)
How it was run: as §1

| SMILES | Bliss excess [1] | Bliss excess [2] | Bliss excess [3] | Bliss excess [4] | Bliss excess [5] | Bliss excess [6] | Bliss excess [7] | Bliss excess [8] | Bliss excess [9] | Bliss excess [10] | Bliss excess [11] | Bliss excess [12] | Bliss excess [13] | Bliss excess [14] | Bliss excess [15] | Bliss excess [16] | Bliss excess [17] | Bliss excess [18] | Bliss excess [19] | Bliss excess [20] |
| --- | --- | --- | --- | --- | --- | --- | --- | --- | --- | --- | --- | --- | --- | --- | --- | --- | --- | --- | --- | --- |
| COc1nnc2ccc(N3CCC(c4ccc(OCCN5CCN(C)C(=O)[C@H]5C)cc4)CC3)nn12 [AZD5153] + Cn1cnc2c(F)c(Nc3ccc(Br)cc3Cl)c(C(=O)NOCCO)cc21 [Selumetinib] (first compound max 1 µM, 7x7, partner max 10 µM) | -0.081 | -0.0118 | 0.0278 | -0.0282 | -0.0093 | -0.0651 | -0.0059 | -0.0043 | 0.0219 | -0.0216 | -0.0727 | -0.032 | -0.0421 | 0.0137 | -0.0275 | -0.0114 | -0.0319 | 0.101 | -0.0509 | -0.063 |
| Cc1c2c(nn1C)CSCc1cc(n(C)n1)CSc1cc(c3ccccc3c1)OCCCc1c(C(=O)O)n(C)c3c-2c(Cl)ccc13 [AZD5991] + C[C@@H]1COCCN1C2=NC(=NC(=C2)C3(CC3)[S@](=N)(=O)C)C4=C5C=CNC5=NC=C4 [AZD6738] (first compound max 1 µM, 7x7, partner max 10 µM) | 0.0342 | -0.0032 | 0.0006 | -0.0252 | 0.0358 | 0.066 | 0.0117 | 0.0165 | 0.0233 | -0.0097 | 0.0276 | 0.0266 | 0.0386 | -0.0045 | -0.0031 | 0.0135 | 0.0192 | 0.0108 | 0.0062 | -0.0084 |
| CC1(C)CCC(CN2CCN(c3ccc(C(=O)NS(=O)(=O)c4ccc(NCC5CCOCC5)c([N+](=O)[O-])c4)c(Oc4cnc5[nH]ccc5c4)c3)CC2)=C(c2ccc(Cl)cc2)C1 [Venetoclax] + C=CCn1c(=O)c2cnc(Nc3ccc(N4CCN(C)CC4)cc3)nc2n1-c1cccc(C(C)(C)O)n1 [AZD1775] (first compound max 1 µM, partner max 1 µM) | -0.0188 | 0.0477 | 0.0756 | -0.0322 | -0.0321 | -0.0236 | -0.0114 | 0.0804 | -0.0262 | 0.063 | -0.0373 | 0.0406 | -0.0625 | -0.0386 | -0.0202 | -0.001 | -0.0218 | -0.03 | -0.0325 | 0.0354 |
| C=CCn1c(=O)c2cnc(Nc3ccc(N4CCN(C)CC4)cc3)nc2n1-c1cccc(C(C)(C)O)n1 [AZD1775] + C1CN(CCC1(C(=O)N[C@@H](CCO)C2=CC=C(C=C2)Cl)N)C3=NC=NC4=C3C=CN4 [Capivasertib] (first compound max 3 µM, partner max 3 µM) | 0.0152 | 0.0361 | -0.0494 | -0.0101 | -0.0197 | -0.0359 | -0.0278 | -0.007 | 0.0203 | -0.0204 | -0.0424 | 0.0149 | -0.0346 | -0.0203 | 0.0064 | -0.034 | -0.0367 | 0.0005 | -0.0697 | 0.0306 |
| COc1nnc2ccc(N3CCC(c4ccc(OCCN5CCN(C)C(=O)[C@H]5C)cc4)CC3)nn12 [AZD5153] + Cc1c2c(nn1C)CSCc1cc(n(C)n1)CSc1cc(c3ccccc3c1)OCCCc1c(C(=O)O)n(C)c3c-2c(Cl)ccc13 [AZD5991] (first compound max 1 µM, 7x7, partner max 1 µM) | 0.0406 | -0.0324 | -0.0342 | -0.0502 | -0.056 | -0.0124 | -0.025 | 0.007 | 0.0617 | -0.0614 | -0.0071 | 0.07 | 0.044 | -0.0587 | -0.0167 | -0.0049 | -0.0273 | 0.0438 | -0.0209 | -0.0694 |
| Cc1c2c(nn1C)CSCc1cc(n(C)n1)CSc1cc(c3ccccc3c1)OCCCc1c(C(=O)O)n(C)c3c-2c(Cl)ccc13 [AZD5991] + CC1(C)CCC(CN2CCN(c3ccc(C(=O)NS(=O)(=O)c4ccc(NCC5CCOCC5)c([N+](=O)[O-])c4)c(Oc4cnc5[nH]ccc5c4)c3)CC2)=C(c2ccc(Cl)cc2)C1 [Venetoclax] (first compound max 1 µM, 7x7, partner max 1 µM) | 0.0076 | 0.0777 | 0.0115 | -0.02 | -0.0081 | 0.0276 | -0.012 | 0.159 | 0.0375 | 0.0144 | -0.0209 | 0.0249 | -0.0461 | 0.0221 | -0.0513 | 0.0733 | -0.0327 | 0.13 | -0.0145 | -0.115 |
